The results in this text go back to patent US8377983B2, “Benzazole derivatives, compositions, and methods of use as aurora kinase inhibitors” (TransTech Pharma, Inc., priority 2006, dated 2013).

Assay [1] has as its system human MiaPaCa-2 pancreatic xenografts. Put plainly: MiaPaCa-2 xenograft model, Example 88 alone and in combination with erlotinib. The assay is classed as in vivo, athymic mice. The note with it: for Median Tumor Size: Example 88 10 mg/kg i.p. b.i.d. 10 days, erlotinib 50 mg/kg p.o. daily 14 days; for complete responders (CR, 100% reduction in tumor size) / partial responders (PR, greater than 50% reduction in tumor size): day 42, out of 8 mice, 10 mg/kg. On the procedure: (§1) Compounds were dosed on the following schedules:
2) Erlotinib was dosed 50 mg/kg, p.o., daily for 14 days (days 1-14).
Mice-bearing sc tumors were randomized, and treatment groups consisted of 8 mice.

Assay [2] concerns HCT-116, BxPC-3, A549, BT-549, LNCaP, MIA Paca-2 tumor cells. Description: In vitro cell proliferation (alamarBlue). The assay is classed as cell-based. The conditions noted are these: Homo sapiens; 96 hr incubation; read-out: IC50 against at least one of HCT-116, MIA Paca-2, or LNCaP cells. The protocol: Compounds are tested for their ability to inhibit cell proliferation and viability. The metabolic reduction of alamarBlue™ (Biosource cat. no. DAL1100) was used to measure cell viability.
The anti-proliferative activity of compounds is studied using a panel of tumor cells: HCT-116 (human colorectal carcinoma cell line), BxPC-3 (human pancreatic adenocarcinoma cell line), A549 (human lung carcinoma cell line), BT-549 (human breast carcinoma cell line), LNCaP (human prostate carcinoma cell line), and MIA Paca-2 (human pancreatic carcinoma cell line). These adherent cells (1,000-20,000) are plated in complete media (RPMI-1640, DMEM, F12K, or McCoy's 5A) containing 10% fetal bovine serum (Gibco) in tissue culture treated 96-well plates (Costar) and placed in a humidified incubator at 37° C., […], 5% CO2 for 18-24 hr. Media was removed and replaced with 90 μL fresh media. Compound is diluted in media containing 3% DMSO and added to cells. Background (C^−) relative fluorescent units are determined by incubating alamarBlue™ reagent for 6 hr using untreated cells plated 18 hr earlier. Untreated cells or cells containing compound are incubated for 96 hr. During the last 6 hr of the incubation period, alamarBlue™ reagent (10 μL) was added to each well and incubated in a humidified incubator at 37° C., […], 5% CO2.
AlamarBlue™ reduction is measured in a fluorescence plate reader with instrument settings for excitation at 530 nm and emission at 590 nm. […] Compound IC50 values are determined from % inhibition versus compound concentration curve plots using GraphPad Prism™ according to the 4 parameter logistic equation Y=Bottom+(Top−Bottom)/1+10^((Log EC50−X)*HillSlope)).
For orientation: Resazurin is reduced to fluorescent resorufin, in cell work by metabolically active cells.

Assay [3] concerns human MiaPaCa-2 pancreatic xenografts. Description: MiaPaCa-2 xenograft model, Example 88 alone and in combination with gemcitabine. It is filed as in vivo, athymic mice. The note with it: for Median Tumor Size: Example 88 10 mg/kg i.p. b.i.d. 10 days, gemcitabine 120 mg/kg i.p. q3d×4. On the procedure:
as §1
2) Gemcitabine was dosed 120 mg/kg, i.p., q3d×4 (days 1, 4, 7, 10).
Drug treatment started when mean tumor sizes reached approximately 120 mg (day 8). Mice-bearing sc tumors were randomized, and treatment groups consisted of 8 mice. The median tumor size for each group at various points in the study are listed below in Table B.

Setting [4] is: day 8 of study (treatment start).
Where [5] appears, read: day 42, out of 8 mice, Example 88 10 mg/kg, gemcitabine 120 mg/kg.

Regarding `C#Cc1cccc(Nc2ncnc3cc(OCCOC)c(OCCOC)cc23)c1` [Erlotinib, erlotinib, reference compound], the “Median Tumor Size” value in assay [1] (setting [4]) was determined as 120 mg; in assay [1] (day 10 of study), 144 mg; in assay [1] (day 13 of study), 192 mg; in assay [1] (day 16 of study), 267 mg; in assay [1] (day 20 of study), 363 mg; in assay [1] (day 23 of study) it was 507 mg. In addition, the “Median Tumor Size” value is recorded as 700 mg in assay [1] (day 27 of study); 908 mg in assay [1] (day 30 of study); 1224 mg in assay [1] (day 34 of study); 1296 mg in assay [1] (day 37 of study); 1368 mg in assay [1] (day 42 of study). In assay [1] (day 23, Example 88 10 mg/kg, erlotinib 50 mg/kg), the “inhibition of tumor growth relative to vehicle-treated tumors” value is listed as 16%. Moreover, the “complete responders (CR, 100% reduction in tumor size)” value in assay [1] (erlotinib 50 mg/kg) is on record as 0/8. Also, in assay [1] (erlotinib 50 mg/kg), the “partial responders (PR, greater than 50% reduction in tumor size)” value is recorded as 0/8.
In general, IC50 refers to the midpoint of a concentration-inhibition curve. For `CC(C)c1ccccc1Nc1nc2cc(C(=O)Nc3ccc4cn[nH]c4c3)ccc2[nH]1` [Example 27, 2-(2-Isopropylphenylamino)-3H-benzimidazole-5-carboxylic acid (1H-indazol-6-yl)-amide], in assay [2], the IC50 is not above 3 µM.
Still for that read-out and setting: the same measure for `O=C(Nc1ccc2cn[nH]c2c1)c1ccc2[nH]c(Nc3ccccc3C(F)(F)F)nc2c1` [Example 35, 2-(2-Trifluoromethylphenylamino)-3H-benzimidazole-5-carboxylic acid (1H-indazol-6-yl)-amide]: not above 3 µM.
On to `Cc1cccnc1Nc1nc2cc(C(=O)Nc3ccc4cn[nH]c4c3)ccc2[nH]1` [Example 36, 2-(3-Methylpyridin-2-ylamino)-3H-benzimidazole-5-carboxylic acid(1H-indazol-6-yl)-amide], for which, in assay [2], the IC50 was not above 3 µM.
Consider `CC(C)c1ccccc1Nc1nc2cc(C(=O)Nc3ccc4cn[nH]c4c3)c(N3CCN(C)CC3)cc2[nH]1` [Example 48, 2-(2-Isopropylphenylamino)-6-(4-methyl-piperazin-1-yl)-1H-benzimidazole-5-carboxylic acid (1H-indazol-6-yl)-amide], for which the IC50 in assay [2] is not above 3 µM.
The same measure, in the same setting: the same measure for `CN1CCN(c2cc3[nH]c(Nc4ccccc4C(F)(F)F)nc3cc2C(=O)Nc2ccc3cn[nH]c3c2)CC1` [Example 50, 6-(4-Methylpiperazin-1-yl)-2-(2-trifluoromethyl-phenylamino)-1H-benzimidazole-5-carboxylic acid (1H-indazol-6-yl)-amide]: not above 3 µM.
On to `O=C(Nc1ccc2cn[nH]c2c1)c1cc2nc(Nc3ccccc3C(F)(F)F)[nH]c2cc1N1CCOCC1` [Example 54, 6-Morpholin-4-yl-2-(2-trifluoromethylphenylamino)-1H-benzimidazole-5-carboxylic acid (1H-indazol-6-yl)-amide], for which, in assay [2], the IC50 is not above 3 µM.
On the same count and under the same terms, the same measure for `O=C(Nc1ccc2cn[nH]c2c1)c1cc2nc(Nc3ccccc3C(F)(F)F)[nH]c2cc1N1CCCCC1` [Example 57, 6-Piperidin-1-yl-2-(2-trifluoromethyl-phenylamino)-1H-benzimidazole-5-carboxylic acid (1H-indazol-6-yl)-amide]: not above 3 µM; for `Cc1cccnc1Nc1nc2cc(C(=O)Nc3ccc4cn[nH]c4c3)c(N3CCN(C)CC3)cc2[nH]1` [Example 58, 6-(4-Methyl-piperazin-1-yl)-2-(3-methyl-pyridin-2-ylamino)-1H-benzimidazole-5-carboxylic acid (1H-indazol-6-yl)-amide]: not above 3 µM.
On the same count and under the same terms, with `Cc1cccnc1Nc1nc2cc(C(=O)Nc3ccc4cn[nH]c4c3)c(N3CCOCC3)cc2[nH]1` [Example 60, 2-(3-Methylpyridin-2-ylamino)-6-morpholin-4-yl-1H-benzimidazole-5-carboxylic acid (1H-indazol-6-yl)-amide] the figure was not above 3 µM.
As to `CCc1cccc(CC)c1Nc1nc2cc(C(=O)Nc3ccc4cn[nH]c4c3)ccc2[nH]1` [Example 91, 2-(2,6-diethylphenylamino)-3H-benzimidazole-5-carboxylic acid (1H-indazol-6-yl)-amide], in assay [1] (erlotinib 50 mg/kg), the “complete responders (CR, 100% reduction in tumor size)” value is given as 0/8 and the “partial responders (PR, greater than 50% reduction in tumor size)” value is given as 0/8.
Consider `Nc1ccn([C@@H]2O[C@H](CO)[C@@H](O)C2(F)F)c(=O)n1` [Gemcitabine, reference compound], for which the “Median Tumor Size” value in assay [3] (setting [4]) turned out to be 120 mg; in assay [3] (day 10 of study), 144 mg; in assay [3] (day 13 of study) it was 144 mg; in assay [3] (day 16 of study), 153 mg; in assay [3] (day 20 of study), 221 mg; in assay [3] (day 23 of study), 246 mg. Moreover, the “Median Tumor Size” value in assay [3] (day 27 of study) is listed as 336 mg; in assay [3] (day 30 of study), 472 mg; in assay [3] (day 34 of study), 675 mg; in assay [3] (day 37 of study), 824 mg; in assay [3] (day 42 of study) it was 988 mg. Also, in assay [3] (day 23, Example 88 10 mg/kg, gemcitabine 120 mg/kg), the “inhibition of tumor growth relative to vehicle-treated tumors” value is 60%. In addition, the “complete responders (CR, 100% reduction in tumor size)” value in assay [3] (setting [5]) is recorded as 0/8. Also, in assay [3] (setting [5]), the “partial responders (PR, greater than 50% reduction in tumor size)” value is listed as 0/8.
